From patent US20090062208A1, “Methods for maintaining blood-brain barrier integrity in hypertensive subjects using a delta-PKC inhibitor” (priority 2007, published 2009)

Assays:
middle cerebral arteries = details: DS rats; Payne and Smeda 2002; cited from earlier work
[1] = tested on: Dahl salt-sensitive (DS) rats; test: Hypertension-induced stroke in Dahl salt-sensitive rats on high-salt diet (blood pressure, stroke incidence); format: in vivo, rat; details: hypertensive DS rats; for blood pressure: subcutaneous infusion by osmotic minipump, versus control TAT peptide
Protocol: (§1) As detailed in Example 1, Dahl salt-sensitive (DS) rats, which are a model for hypertension in humans, were used to evaluate the efficacy of δPKC inhibitor treatment. The animals were initially maintained on a low-salt (0.3% NaCl) diet then switched to a high-salt (8% NaCl) to induce hypertension. The rats were subcutaneously treated with either a saline solution, a control peptide (TAT, SEQ ID NO:85), or a δPKC peptide inhibitor. Blood pressure was measured bi-weekly and blood-brain barrier (BBB) disruption was assessed at the end of the treatment period. Proteomic analysis of brain samples was carried out to identify differences in the brains of control TAT peptide and δV1-1-treated animals.
Male Dahl salt-sensitive (DS) rats were maintained on a low-salt (0.3% NaCl) diet until 6 weeks of age. The animals were then switched to a high-salt (8% NaCl) diet until 15 weeks of age. The animals were monitored daily for symptoms of systemic hypertension.
(§2) The rats were subcutaneously infused (i.e., treated) with a saline solution, a control TAT peptide (YGRKKRRQRRR, SEQ ID NO:85), or the peptide inhibitor δV1-1 (SFNSYELGSL, SEQ ID NO: 1) attached via an N-terminal disulfide bond to TAT peptide (YGRKKRRQRRR-CC-SFNSYELGSL, SEQ ID NO:89), at a rate of 5.0 μL/hour, using an osmotic minipump. Treatment began at 11 weeks of age and survival rate and neurological deficits were recorded through week 15. Blood pressure was measured bi-weekly and blood-brain barrier disruption was assessed at 13 weeks by measuring Evans Blue dye extravasation. Proteomic analysis of brain samples was carried out to identify differences in the brains of control TAT peptide and δV1-1-treated animals. Blood brain barrier-related proteins were evaluated by immunoblot analysis.

blood-brain barrier = test: Blood-brain barrier disruption by Evans Blue dye extravasation; format: in vivo, rat; details: hypertensive DS rats, at 13 weeks, n=6, p<0.01
Protocol: as §1
as §2, with “Proteomic analysis of brain samples was carried out to identify differences in the brains of control TAT peptide and δV1-1-treated animals.” left out

transferrin and actin = test: Proteomic analysis of brain samples; format: in vivo, rat; details: brain samples taken at 13 weeks of age, continuous administration
Protocol: as §1
as §2, with “Proteomic analysis of brain samples was carried out to identify differences in the brains of control TAT peptide and δV1-1-treated animals.” left out

[2] = tested on: zonula occludens 1 (ZO-1), and occludin; test: Immunoblot analysis of blood brain barrier-related proteins; format: in vivo, rat; details: hypertensive DS rats
Protocol: as §2

Molecule	middle cerebral artery constriction in response to elevated blood pressure (middle cerebral arteries)	incidence of stroke (and stroke-associated symptoms) ([1]; relative to the TAT control group, n=24, p<0.01)	blood pressure ([1]; listed as δPKC inhibitor)	blood pressure ([1]; listed as δV1-1 peptide)	Evans Blue extravasation into the brain parenchyma (blood-brain barrier)	increased levels of transferrin and actin in brain samples (transferrin and actin)	hypertension-induced redistribution of tight junction-related proteins ZO-1 and occludin [2]
COc1ccc2c(c[n+](C)c3c4cc5c(cc4ccc23)OCO5)c1OC [chelerythrine]	inhibited constriction	–	–	–	–	–	–
YGRKKRRQRRR-CC-SFNSYELGSL [δV1-1]	–	significantly decreased	similar	identical	reduced	attenuated	blocked
bisindolylmaleimide	inhibited constriction	–	–	–	–	–	–
